According to publication PMC10698726 (Molecular Pharmaceutics, 2023):
Where two headings read alike, the source gives them in different places.

Columns and labels:
OCT2 = molecular target: T1, OCT2 (Homo sapiens, UniProt O15244); experiment: Inhibition of model substrate uptake in OCT2-overexpressing HEK293 cells; conditions: for IC50: IC50 [μM], OCT2, Table 1; for inhibition at 5 min, 20 μM: human, OCT2-overexpressing HEK293 cells
T1 sequence (O15244 1-555): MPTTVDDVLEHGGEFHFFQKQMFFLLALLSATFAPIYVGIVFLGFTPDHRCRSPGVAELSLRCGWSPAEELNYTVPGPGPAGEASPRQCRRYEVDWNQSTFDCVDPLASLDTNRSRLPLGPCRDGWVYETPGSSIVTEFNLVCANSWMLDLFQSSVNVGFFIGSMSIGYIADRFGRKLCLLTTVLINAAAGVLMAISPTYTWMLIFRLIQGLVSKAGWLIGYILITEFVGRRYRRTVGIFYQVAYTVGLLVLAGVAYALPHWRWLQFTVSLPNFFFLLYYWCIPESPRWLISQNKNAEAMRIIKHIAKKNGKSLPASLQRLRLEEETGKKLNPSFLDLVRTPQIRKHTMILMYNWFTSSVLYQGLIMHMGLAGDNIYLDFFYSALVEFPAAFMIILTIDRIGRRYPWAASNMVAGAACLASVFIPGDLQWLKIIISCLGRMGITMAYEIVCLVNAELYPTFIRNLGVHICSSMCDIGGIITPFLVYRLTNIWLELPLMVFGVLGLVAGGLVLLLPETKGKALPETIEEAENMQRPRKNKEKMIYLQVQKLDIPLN

OCT3 = molecular target: T2, OCT3 (Homo sapiens, UniProt O75751); experiment: Inhibition of model substrate uptake in OCT3-overexpressing HEK293 cells; assay type: cell-based; conditions: 20 μM inhibitor, 5 min
T2 construct: expressed in transfected cells; host or cells: HEK293
T2 sequence (O75751 1-556): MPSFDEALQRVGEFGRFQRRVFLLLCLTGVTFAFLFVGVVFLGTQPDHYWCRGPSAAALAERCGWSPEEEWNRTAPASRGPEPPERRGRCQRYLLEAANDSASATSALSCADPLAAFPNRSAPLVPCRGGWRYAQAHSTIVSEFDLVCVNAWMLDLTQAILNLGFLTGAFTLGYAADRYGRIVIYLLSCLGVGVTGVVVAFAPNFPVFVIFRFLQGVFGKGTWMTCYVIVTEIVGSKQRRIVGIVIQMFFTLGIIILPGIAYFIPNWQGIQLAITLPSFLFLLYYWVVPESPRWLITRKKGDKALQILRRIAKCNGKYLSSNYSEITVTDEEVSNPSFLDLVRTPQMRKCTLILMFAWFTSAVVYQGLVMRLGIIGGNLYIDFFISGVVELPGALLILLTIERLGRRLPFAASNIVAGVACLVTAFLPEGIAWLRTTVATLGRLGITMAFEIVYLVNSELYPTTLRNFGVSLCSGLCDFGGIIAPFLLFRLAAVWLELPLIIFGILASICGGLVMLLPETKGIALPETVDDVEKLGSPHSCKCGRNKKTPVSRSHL
Procedure, shortened: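 Transporter-overexpressing HEK293 cells were incubated 5 min in HBSS+ with 2 μM model substrate, with or without 20 μM inhibitor or increasing inhibitor concentrations. Uptake was read as ASP^+ fluorescence or by LC–MS/MS, with empty-vector uptake subtracted. IC50 came from a Hill fit of activity versus log concentration.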

[1] = oral administration, cited from earlier work
OCT1 [2] = molecular target: T3, OCT1 (Homo sapiens, UniProt O15245); experiment: Inhibition of model substrate uptake in OCT1-overexpressing HEK293 cells; assay type: cell-based; parameters: expressed in transfected cells; host or cells: HEK293; conditions: human, OCT1-overexpressing HEK293 cells, OCT1, 20 μM inhibitor, 5 min
T3 sequence (O15245 1-554): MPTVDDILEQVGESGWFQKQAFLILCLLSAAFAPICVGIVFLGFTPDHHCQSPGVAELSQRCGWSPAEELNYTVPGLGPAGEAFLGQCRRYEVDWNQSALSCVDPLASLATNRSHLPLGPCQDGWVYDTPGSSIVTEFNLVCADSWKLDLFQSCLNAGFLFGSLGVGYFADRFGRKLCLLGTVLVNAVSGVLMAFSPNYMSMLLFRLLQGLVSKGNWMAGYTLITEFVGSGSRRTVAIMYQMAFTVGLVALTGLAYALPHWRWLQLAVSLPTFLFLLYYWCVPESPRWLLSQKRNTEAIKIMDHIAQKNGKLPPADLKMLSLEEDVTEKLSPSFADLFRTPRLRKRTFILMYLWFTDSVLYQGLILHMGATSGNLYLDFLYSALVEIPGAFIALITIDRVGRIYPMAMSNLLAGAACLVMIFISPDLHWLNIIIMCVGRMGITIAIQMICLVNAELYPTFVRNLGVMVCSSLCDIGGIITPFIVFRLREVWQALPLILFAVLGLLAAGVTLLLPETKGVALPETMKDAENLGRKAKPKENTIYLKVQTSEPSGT
Protocol: Koepsell and Gorbulev (University of Würzburg, Germany).
Fluorescence quantification was performed in technical duplicates.

OCT1 [3] = molecular target: T3, OCT1; conditions: cited from earlier work
[4] = HEK293, 5 min, read-out: (S)-Zolmitriptan inhibition [%], OCT3, 2 μM (S)-zolmitriptan
[5] = HEK293, 5 min, read-out: (S,S)-Ethambutol inhibition [%], OCT3, 2 μM (S,S)-ethambutol
[6] = HEK293, OCT3, 2 μM ASP+, read-out: ASP+ inhibition [%]
[7] = pH 7.4, probe (S,S)-ethambutol (2 μM), (S,S)-Ethambutol inhibition [%], 2 μM (S,S)-ethambutol
[8] = pH 7.4, probe ASP+ (2 μM), 2 μM ASP+, mean of three experiments, read-out: ASP+ inhibition [%]
[9] = pH 7.4, probe sumatriptan (2 μM), 2 μM sumatriptan, read-out: Sumatriptan inhibition [%]
[10] = ref 2 (Matthaei et al., 2016, supplement)

| Compound | IC50 (OCT2) | inhibition at 20 µM (OCT3; [4]) | inhibition at 20 µM (OCT3; [5]) | inhibition at 20 µM (OCT3; [6]) | inhibition at 5 min, 20 μM (OCT1 [2]; [7]) | inhibition at 5 min, 20 μM (OCT1 [2]; [8]) | inhibition at 5 min, 20 μM (OCT1 [2]; [9]) | also measured |
| --- | --- | --- | --- | --- | --- | --- | --- | --- |
| CCN1CCC[C@@H]1CNC(=O)c1cc(S(=O)(=O)CC)c(N)cc1OC [(R)-Amisulpride] | 9.4 µM | 56% | 81.3% | 37.9% | 57.7% | 25.2% | 29.3% | (S,S)-Ethambutol inhibition [%] (OCT2; OCT2, 20 μM inhibitor, 2 μM (S,S)-ethambutol, 5 min): -5.7%; ASP+ inhibition [%] (OCT2; OCT2, 20 μM inhibitor, 2 μM ASP+, 5 min): 65.9%; N-Ethyllidocaine inhibition [%] (OCT2; OCT2, 20 μM inhibitor, 2 μM N-ethyllidocaine, 5 min): 11.3%; Imax ([1]; amisulpride, single dose (50 mg)): 0.158 µM |
| CNS(=O)(=O)Cc1ccc2[nH]cc(CCN(C)C)c2c1 [Sumatriptan] |  |  |  |  |  |  |  | Km (OCT1 [3]; read-out: Km ± SEM, ref 2 (Matthaei et al., 2016, supplement)): 55.4 µM; Clint ± SEM (OCT1 [3]; [10]): 17.6; vmax ± SEM [pmol × mg Protein−1 × min−1] (OCT1 [3]; [10]): 978 pmol × mg Protein−1 × min−1 |
| CC(Cc1ccc(O)cc1)NCC(O)c1cc(O)cc(O)c1 (racemic) [rac Fenoterol, Fenoterol] |  |  |  |  |  |  |  | Clint ± SEM (OCT1 [3]; ref 1 (Tzvetkov et al., 2018, supplement)): 33.0 |
| CN(C)CCC[C@]1(c2ccc(F)cc2)OCc2cc(C#N)ccc21 [(R)-Citalopram] | 17.8 µM | 11.8% | 17.2% | 4.5% | 72.8% | 28.9% | 78% | inhibition at 5 min, 20 μM (OCT2; pH 7.4, probe (S,S)-ethambutol (2 μM), (S,S)-Ethambutol inhibition [%], OCT2, 20 μM inhibitor, 2 μM (S,S)-ethambutol, 5 min): 1.4%; inhibition at 5 min, 20 μM (OCT2; pH 7.4, probe ASP+ (2 μM), ASP+ inhibition [%], OCT2, 20 μM inhibitor, 2 μM ASP+, 5 min): 52.1%; inhibition at 5 min, 20 μM (OCT2; pH 7.4, probe N-ethyllidocaine (2 μM), N-Ethyllidocaine inhibition [%], OCT2, 20 μM inhibitor, 2 μM N-ethyllidocaine, 5 min): 28.4%; Imax ([1]; citalopram, multiple doses (40 mg, once daily for 21 d)): 0.228 µM |
